Assay results from paper PMC11845761, “Intestinal human carboxylesterase 2 (CES2) expression rescues drug metabolism and most metabolic syndrome phenotypes in global Ces2 cluster knockout mice” (Acta Pharmacologica Sinica, 2024).
Like-named read-outs stand apart in the source and are kept apart here. Marks after values point to notes of the source that are not given here.

Assays:
[1] = Tissue concentrations of capecitabine and its metabolites 2 h after oral capecitabine in CES2-modified mice; format: in vivo, mouse; conditions: oral capecitabine 500 mg/kg; for concentration at 2 h: female, mouse, oral, 500 mg/kg
Procedure: (§1) For capecitabine 2-h experiments, 6–7 female mice received oral capecitabine (500 mg/kg, 10 μL/g), and tail vein blood samples were collected at 0.125, 0.25, 0.5 and 1 h after drug administration. For the vinorelbine 4-h experiment, 6-7 male mice received vinorelbine intravenously (10 mg/kg, 5 μL/g) or orally (10 mg/kg, 10 μL/g) using a blunt-ended needle. Tail vein blood samples were collected at 0.125, 0.25, 0.5, 1 and 2 h after drug administration. […] At the last time point in each experiment (2 or 4 h), mice were anesthetized with 5% isoflurane and blood was collected by cardiac puncture. […] Plasma was isolated from the blood by centrifugation at 9000 × g for 6 min at 4 °C, and the plasma fraction was collected and stored at −30 °C until analysis.
(§2) Concentrations of capecitabine (and its metabolites) and vinorelbine (and its metabolite) in mouse plasma samples and organ homogenates were determined using two independent validated high-performance liquid chromatography-tandem mass spectrometry assays.
(§3) Pharmacokinetic parameters were calculated by non-compartmental methods using the PK solver software. […] Differences were considered statistically significant when P < 0.05. All data are presented as mean ± SD.

[2] = Plasma pharmacokinetics of capecitabine and its metabolites after oral capecitabine in CES2-modified mice; format: in vivo, mouse; conditions: oral capecitabine 500 mg/kg, plasma; for AUC(0-t) / Cmax / Tmax: female, mouse, po, 500 mg/kg; for AUC(0-t): read-out: AUC0-2h; for Tmax: read-out: Tmax
Procedure: as §1, §2, §3

[3] = Ces2^-/-, liver, female Ces2^–/– mice, read-out: Cliver (liver concentration)
[4] = Ces2^-/-, small intestine, female Ces2^–/– mice, read-out: CSI (small intestine tissue concentration)
[5] = Ces2^-/-A, liver, female Ces2^–/–A mice, read-out: Cliver (liver concentration)
[6] = Ces2^-/-A, small intestine tissue, female Ces2^–/–A mice, read-out: CSI (small intestine tissue concentration)
[7] = Ces2^-/-V, liver, female Ces2^–/–V mice, read-out: Cliver (liver concentration)
[8] = Ces2^-/-V, small intestine, female Ces2^–/–V mice, read-out: CSI (small intestine tissue concentration)
[9] = colon, female Ces2^–/– mice, read-out: Ccolon (colon concentration)
[10] = colon, female Ces2^–/–A mice, read-out: Ccolon (colon concentration)
[11] = colon, female Ces2^–/–V mice, read-out: Ccolon (colon concentration)
[12] = colon, female wild-type mice, read-out: Ccolon (colon concentration)
[13] = liver, female wild-type mice, read-out: Cliver (liver concentration)
[14] = small intestine contents, female Ces2^–/– mice, read-out: CSIC (small intestine contents concentration)
[15] = small intestine contents, female Ces2^–/–A mice, read-out: CSIC (small intestine contents concentration)
[16] = small intestine contents, female Ces2^–/–V mice, read-out: CSIC (small intestine contents concentration)
[17] = small intestine contents, female wild-type mice, read-out: CSIC (small intestine contents concentration)
[18] = small intestine tissue, female wild-type mice, read-out: CSI (small intestine tissue concentration)
[19] = Ces2^–/– (Ces2 cluster knockout), female Ces2^–/– mice
[20] = Ces2^–/– (Ces2 cluster knockout), female Ces2^–/– mice, read-out: Cmax
[21] = female Ces2^–/–A mice, read-out: Cmax
[22] = female Ces2^–/–V mice, read-out: Cmax
[23] = female wild-type mice, read-out: Cmax

O=c1[nH]cc(F)c(=O)[nH]1 [5-FU, 5-fluorouracil, reference compound]
Colon concentration ratio (metabolite/capecitabine) ([1]; female Ces2^–/– mice): 0.14 ± 0.03 | Liver concentration ratio (metabolite/capecitabine) ([1]; female Ces2^–/– mice): 0.09 ± 0.03 | Small intestine concentration ratio (metabolite/capecitabine) ([1]; female Ces2^–/– mice): 0.32 ± 0.10 | Small intestine contents Ratio (x 10^-3) (5-FU/Capecitabine) ([1]; female Ces2^–/– mice): 2.1 ± 0.7 x 10^-3 | Colon concentration ratio (metabolite/capecitabine) ([1]; female Ces2^–/–A mice): 0.17 ± 0.02 | Liver concentration ratio (metabolite/capecitabine) ([1]; female Ces2^–/–A mice): 0.52 ± 0.25 | Small intestine concentration ratio (metabolite/capecitabine) ([1]; female Ces2^–/–A mice): 0.32 ± 0.11 | Small intestine contents Ratio (x 10^-3) (5-FU/Capecitabine) ([1]; female Ces2^–/–A mice): 1.9 ± 1.6 x 10^-3 | Colon concentration ratio (metabolite/capecitabine) ([1]; female Ces2^–/–V mice): 0.50 ± 0.18^###^^^ | Liver concentration ratio (metabolite/capecitabine) ([1]; female Ces2^–/–V mice): 0.24 ± 0.07***^###^ | Small intestine concentration ratio (metabolite/capecitabine) ([1]; female Ces2^–/–V mice): 2.0 ± 0.9^###^^^ | Small intestine contents Ratio (x 10^-3) (5-FU/Capecitabine) ([1]; female Ces2^–/–V mice): 6.8 ± 3.0##^^ x 10^-3 | Colon concentration ratio (metabolite/capecitabine) ([1]; female wild-type mice): 0.53 ± 0.09 | Liver concentration ratio (metabolite/capecitabine) ([1]; female wild-type mice): 0.65 ± 0.31 | Small intestine concentration ratio (metabolite/capecitabine) ([1]; female wild-type mice): 2.1 ± 0.8 | Small intestine contents Ratio (x 10^-3) (5-FU/Capecitabine) ([1]; female wild-type mice): 5.1 ± 3.4 x 10^-3 | concentration at 2 h [1, 3]: 1520 ± 765 ng/g | concentration at 2 h [1, 4]: 5200 ± 2040 ng/g | concentration at 2 h [1, 5]: 2140 ± 372 ng/g | concentration at 2 h [1, 6]: 4430 ± 1510 ng/g | concentration at 2 h [1, 7]: 1420 ± 574 ng/g | concentration at 2 h [1, 8]: 4120 ± 1840 ng/g | concentration at 2 h [1, 9]: 1830 ± 1010 ng/g | concentration at 2 h [1, 10]: 1460 ± 233 ng/g | concentration at 2 h [1, 11]: 2100 ± 1020 ng/g | concentration at 2 h [1, 12]: 1190 ± 486 ng/g | concentration at 2 h [1, 13]: 747 ± 184 ng/g | concentration at 2 h [1, 14]: 200 ± 109 ng/g | concentration at 2 h [1, 15]: 142 ± 64 ng/g | concentration at 2 h [1, 16]: 263 ± 149 ng/g | concentration at 2 h [1, 17]: 125 ± 90 ng/g | concentration at 2 h [1, 18]: 3020 ± 835 ng/g | AUC0-2h ratio (×10^−3) (5-FU/capecitabine) ([2]; female Ces2^–/– mice): 6.4 ± 2.1 ×10^−3 | AUC0-2h ratio (×10^−3) (5-FU/capecitabine) ([2]; female Ces2^–/–A mice): 8.0 ± 2.7 ×10^−3 | AUC0-2h ratio (×10^−3) (5-FU/capecitabine) ([2]; female Ces2^–/–V mice): 13 ± 1.6***^###^ ×10^−3 | AUC0-2h ratio (×10^−3) (5-FU/capecitabine) ([2]; female wild-type mice): 29 ± 8.1 ×10^−3 | AUC(0-t) [2, 19]: 187 ± 98 ng·h/mL | Cmax [2, 20]: 147 ± 96 ng/mL | Tmax [2, 19]: 55.8 ± 11.4 min | AUC(0-t) ([2]; female Ces2^–/–A mice): 218 ± 79 ng·h/mL | Cmax [2, 21]: 159 ± 56 ng/mL | Tmax ([2]; female Ces2^–/–A mice): 55.2 ± 12 min | AUC(0-t) ([2]; female Ces2^–/–V mice): 215 ± 100 ng·h/mL | Cmax [2, 22]: 156 ± 81 ng/mL | Tmax ([2]; female Ces2^–/–V mice): 51.6 ± 14.4 min | AUC(0-t) ([2]; female wild-type mice): 168 ± 41 ng·h/mL | Cmax [2, 23]: 105 ± 36 ng/mL | Tmax ([2]; female wild-type mice): 30 ± 16.2 min | Cmax ([2]; female wild-type, Ces2^–/–, Ces2^–/–A and Ces2^–/–V mice, read-out: mean Cmax, range over the mouse models): 105 to 159 ng/mL

C[C@H]1O[C@@H](n2cc(F)c(N)nc2=O)[C@H](O)[C@@H]1O [5’-DFCR, 5’-deoxy-5-fluorocytidine]
Colon concentration ratio (metabolite/capecitabine) ([1]; female Ces2^–/– mice): 2.0 ± 0.4 | Liver concentration ratio (metabolite/capecitabine) ([1]; female Ces2^–/– mice): 2.0 ± 0.6 | Small intestine concentration ratio (metabolite/capecitabine) ([1]; female Ces2^–/– mice): 0.36 ± 0.20 | Small intestine contents concentration ratio (metabolite/capecitabine) ([1]; female Ces2^–/– mice): 0.11 ± 0.04 | Colon concentration ratio (metabolite/capecitabine) ([1]; female Ces2^–/–A mice): 3.2 ± 0.2 | Liver concentration ratio (metabolite/capecitabine) ([1]; female Ces2^–/–A mice): 8.8 ± 3.6 | Small intestine concentration ratio (metabolite/capecitabine) ([1]; female Ces2^–/–A mice): 0.45 ± 0.21 | Small intestine contents concentration ratio (metabolite/capecitabine) ([1]; female Ces2^–/–A mice): 0.10 ± 0.06 | Colon concentration ratio (metabolite/capecitabine) ([1]; female Ces2^–/–V mice): 5.1 ± 2.1 | Liver concentration ratio (metabolite/capecitabine) ([1]; female Ces2^–/–V mice): 4.0 ± 1.0***##^^ | Small intestine concentration ratio (metabolite/capecitabine) ([1]; female Ces2^–/–V mice): 1.80 ± 0.88^###^^^ | Small intestine contents concentration ratio (metabolite/capecitabine) ([1]; female Ces2^–/–V mice): 0.13 ± 0.05 | Colon concentration ratio (metabolite/capecitabine) ([1]; female wild-type mice): 6.9 ± 1.3 | Liver concentration ratio (metabolite/capecitabine) ([1]; female wild-type mice): 17.4 ± 7.3 | Small intestine concentration ratio (metabolite/capecitabine) ([1]; female wild-type mice): 3.20 ± 1.70 | Small intestine contents concentration ratio (metabolite/capecitabine) ([1]; female wild-type mice): 0.19 ± 0.08 | concentration at 2 h [1, 3]: 33300 ± 11600 ng/g | concentration at 2 h [1, 4]: 5410 ± 1430 ng/g | concentration at 2 h [1, 5]: 36600 ± 5870 ng/g | concentration at 2 h [1, 6]: 6220 ± 1830 ng/g | concentration at 2 h [1, 7]: 23300 ± 8530 ng/g | concentration at 2 h [1, 8]: 3600 ± 1570 ng/g | concentration at 2 h [1, 9]: 25700 ± 10700 ng/g | concentration at 2 h [1, 10]: 28200 ± 5870 ng/g | concentration at 2 h [1, 11]: 21200 ± 8100 ng/g | concentration at 2 h [1, 12]: 14900 ± 3800 ng/g | concentration at 2 h [1, 13]: 20300 ± 5740 ng/g | concentration at 2 h [1, 14]: 10800 ± 5610 ng/g | concentration at 2 h [1, 15]: 8120 ± 2840 ng/g | concentration at 2 h [1, 16]: 5180 ± 2410 ng/g | concentration at 2 h [1, 17]: 4410 ± 2350 ng/g | concentration at 2 h [1, 18]: 4510 ± 1340 ng/g | AUC0-2h ratio (metabolite/capecitabine) ([2]; female Ces2^–/– mice): 6.4 ± 1.9 | AUC0-2h ratio (metabolite/capecitabine) ([2]; female Ces2^–/–A mice): 6.4 ± 2.4 | AUC0-2h ratio (metabolite/capecitabine) ([2]; female Ces2^–/–V mice): 8.0 ± 2.2 | AUC0-2h ratio (metabolite/capecitabine) ([2]; female wild-type mice): 21.3 ± 3.5 | AUC(0-t) [2, 19]: 175000 ± 37300 ng·h/mL | Cmax [2, 20]: 121000 ± 23800 ng/mL | Tmax [2, 19]: 27.6 ± 16.2 min | AUC(0-t) ([2]; female Ces2^–/–A mice): 165000 ± 45200 ng·h/mL | Cmax [2, 21]: 117000 ± 35700 ng/mL | Tmax ([2]; female Ces2^–/–A mice): 27.6 ± 6 min | AUC(0-t) ([2]; female Ces2^–/–V mice): 123000 ± 34700 ng·h/mL | Cmax [2, 22]: 80000 ± 18200 ng/mL | Tmax ([2]; female Ces2^–/–V mice): 36.6 ± 22.8 min | AUC(0-t) ([2]; female wild-type mice): 123000 ± 24900 ng·h/mL | Cmax [2, 23]: 101000 ± 18000 ng/mL | Tmax ([2]; female wild-type mice): 15 ± 8.4 min
